Results taken from the supplement of paper PMC10307832.

Tests used:
Experiment in all cases: relative viability (nuclei count vs DMSO), 5 days (fraction); higher = more cells survive
BEN = test system: BEN
How it was run: (§1)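 Nuclei were stained with Hoechst during a one-step fixation (final 0.05% Triton X-100, 1% formaldehyde, 1 ug/ml Hoechst) carried out 5 days after dosing, then counted on 4× images. The cells, lung cancer lines in 1536-well plates, had been dosed by pin tool the day after seeding with one drug alone or a fixed anchor-drug dose plus five library-drug doses (not always all listed) in √10 steps. Relative viability is the nuclei count in treated wells divided by that in vehicle wells, and each value is the median of duplicate plates.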

CAL-12T = test system: CAL-12T
How it was run: as §1

COR-L23 = test system: COR-L23
How it was run: as §1

HCC-366 = test system: HCC-366
How it was run: as §1

LOU-NH91 = test system: LOU-NH91
How it was run: as §1

LU99A = test system: LU99A
How it was run: as §1

NCI-H1355 = test system: NCI-H1355
How it was run: as §1

NCI-H1437 = test system: NCI-H1437
How it was run: as §1

NCI-H1563 = test system: NCI-H1563
How it was run: as §1

NCI-H1650 = test system: NCI-H1650
How it was run: as §1

NCI-H1651 = test system: NCI-H1651
How it was run: as §1

NCI-H1734 = test system: NCI-H1734
How it was run: as §1

NCI-H1793 = test system: NCI-H1793
How it was run: as §1

NCI-H1975 = test system: NCI-H1975
How it was run: as §1

NCI-H2023 = test system: NCI-H2023
How it was run: as §1

NCI-H2085 = test system: NCI-H2085
How it was run: as §1

NCI-H2342 = test system: NCI-H2342
How it was run: as §1

NCI-H358 = test system: NCI-H358
How it was run: as §1

NCI-H441 = test system: NCI-H441
How it was run: as §1

NCI-H460 = test system: NCI-H460
How it was run: as §1

NCI-H838 = test system: NCI-H838
How it was run: as §1

SK-LU-1 = test system: SK-LU-1
How it was run: as §1

## COc1cc2nccc(Oc3ccc(NC(=O)Nc4cc(C)on4)c(Cl)c3)c2cc1OC [Tivozanib] + COc1cccc2cc(-c3nc([C@H]4CC[C@H](C(=O)O)CC4)n4ncnc(N)c34)[nH]c12 [OSI-027] (partner 0.5 µM)
BEN; first compound 0.005 µM
  relative viability: 0.281
BEN; first compound 0.01581 µM
  relative viability: 0.306
BEN; first compound 0.05 µM
  relative viability: 0.311
BEN; first compound 0.1581 µM
  relative viability: 0.298
BEN; first compound 0.5 µM
  relative viability: 0.318
CAL-12T; first compound 0.005 µM
  relative viability: 0.583
CAL-12T; first compound 0.01581 µM
  relative viability: 0.737
CAL-12T; first compound 0.05 µM
  relative viability: 0.762
CAL-12T; first compound 0.1581 µM
  relative viability: 0.364
CAL-12T; first compound 0.5 µM
  relative viability: 0.418
COR-L23; first compound 0.005 µM
  relative viability: 0.74
COR-L23; first compound 0.01581 µM
  relative viability: 0.715
COR-L23; first compound 0.05 µM
  relative viability: 0.799
COR-L23; first compound 0.1581 µM
  relative viability: 0.617
COR-L23; first compound 0.5 µM
  relative viability: 0.647
HCC-366; first compound 0.005 µM
  relative viability: 0.839
HCC-366; first compound 0.01581 µM
  relative viability: 0.849
HCC-366; first compound 0.05 µM
  relative viability: 1.02
HCC-366; first compound 0.1581 µM
  relative viability: 0.707
HCC-366; first compound 0.5 µM
  relative viability: 0.57
LOU-NH91; first compound 0.005 µM
  relative viability: 0.695
LOU-NH91; first compound 0.01581 µM
  relative viability: 0.807
LOU-NH91; first compound 0.05 µM
  relative viability: 0.762
LOU-NH91; first compound 0.1581 µM
  relative viability: 0.61
LOU-NH91; first compound 0.5 µM
  relative viability: 0.729
LU99A; first compound 0.005 µM
  relative viability: 0.292
LU99A; first compound 0.01581 µM
  relative viability: 0.302
LU99A; first compound 0.05 µM
  relative viability: 0.301
LU99A; first compound 0.1581 µM
  relative viability: 0.268
LU99A; first compound 0.5 µM
  relative viability: 0.238
NCI-H1355; first compound 0.005 µM
  relative viability: 0.419
NCI-H1355; first compound 0.01581 µM
  relative viability: 0.48
NCI-H1355; first compound 0.05 µM
  relative viability: 0.475
NCI-H1355; first compound 0.1581 µM
  relative viability: 0.273
NCI-H1355; first compound 0.5 µM
  relative viability: 0.343
NCI-H1437; first compound 0.005 µM
  relative viability: 0.887
NCI-H1437; first compound 0.01581 µM
  relative viability: 0.843
NCI-H1437; first compound 0.05 µM
  relative viability: 0.946
NCI-H1437; first compound 0.1581 µM
  relative viability: 0.661
NCI-H1437; first compound 0.5 µM
  relative viability: 0.837
NCI-H1563; first compound 0.005 µM
  relative viability: 0.751
NCI-H1563; first compound 0.01581 µM
  relative viability: 0.773
NCI-H1563; first compound 0.05 µM
  relative viability: 0.784
NCI-H1563; first compound 0.1581 µM
  relative viability: 0.718
NCI-H1563; first compound 0.5 µM
  relative viability: 0.817
NCI-H1650; first compound 0.005 µM
  relative viability: 0.524
NCI-H1650; first compound 0.01581 µM
  relative viability: 0.746
NCI-H1650; first compound 0.05 µM
  relative viability: 0.709
NCI-H1650; first compound 0.1581 µM
  relative viability: 0.591
NCI-H1650; first compound 0.5 µM
  relative viability: 0.558
NCI-H1651; first compound 0.005 µM
  relative viability: 0.759
NCI-H1651; first compound 0.01581 µM
  relative viability: 0.721
NCI-H1651; first compound 0.05 µM
  relative viability: 0.737
NCI-H1651; first compound 0.1581 µM
  relative viability: 0.497
NCI-H1651; first compound 0.5 µM
  relative viability: 0.67
NCI-H1734; first compound 0.005 µM
  relative viability: 0.567
NCI-H1734; first compound 0.01581 µM
  relative viability: 0.621
NCI-H1734; first compound 0.05 µM
  relative viability: 0.592
NCI-H1734; first compound 0.1581 µM
  relative viability: 0.429
NCI-H1734; first compound 0.5 µM
  relative viability: 0.558
NCI-H1793; first compound 0.005 µM
  relative viability: 0.225
NCI-H1793; first compound 0.01581 µM
  relative viability: 0.219
NCI-H1793; first compound 0.05 µM
  relative viability: 0.344
NCI-H1793; first compound 0.1581 µM
  relative viability: 0.249
NCI-H1793; first compound 0.5 µM
  relative viability: 0.235
NCI-H1975; first compound 0.005 µM
  relative viability: 0.673
NCI-H1975; first compound 0.01581 µM
  relative viability: 0.634
NCI-H1975; first compound 0.05 µM
  relative viability: 0.709
NCI-H1975; first compound 0.1581 µM
  relative viability: 0.565
NCI-H1975; first compound 0.5 µM
  relative viability: 0.475
NCI-H2023; first compound 0.005 µM
  relative viability: 0.393
NCI-H2023; first compound 0.01581 µM
  relative viability: 0.386
NCI-H2023; first compound 0.05 µM
  relative viability: 0.381
NCI-H2023; first compound 0.1581 µM
  relative viability: 0.272
NCI-H2023; first compound 0.5 µM
  relative viability: 0.324
NCI-H2085; first compound 0.005 µM
  relative viability: 0.757
NCI-H2085; first compound 0.01581 µM
  relative viability: 0.66
NCI-H2085; first compound 0.05 µM
  relative viability: 0.817
NCI-H2085; first compound 0.1581 µM
  relative viability: 0.382
NCI-H2085; first compound 0.5 µM
  relative viability: 0.528
NCI-H2342; first compound 0.005 µM
  relative viability: 0.67
NCI-H2342; first compound 0.01581 µM
  relative viability: 0.556
NCI-H2342; first compound 0.05 µM
  relative viability: 0.644
NCI-H2342; first compound 0.5 µM
  relative viability: 0.562
NCI-H358; first compound 0.005 µM
  relative viability: 0.751
NCI-H358; first compound 0.01581 µM
  relative viability: 0.776
NCI-H358; first compound 0.05 µM
  relative viability: 0.674
NCI-H358; first compound 0.1581 µM
  relative viability: 0.332
NCI-H358; first compound 0.5 µM
  relative viability: 0.727
NCI-H441; first compound 0.005 µM
  relative viability: 0.453
NCI-H441; first compound 0.01581 µM
  relative viability: 0.506
NCI-H441; first compound 0.05 µM
  relative viability: 0.78
NCI-H441; first compound 0.1581 µM
  relative viability: 0.563
NCI-H441; first compound 0.5 µM
  relative viability: 0.344
NCI-H460; first compound 0.005 µM
  relative viability: 0.626
NCI-H460; first compound 0.01581 µM
  relative viability: 0.692
NCI-H460; first compound 0.05 µM
  relative viability: 0.727
NCI-H460; first compound 0.1581 µM
  relative viability: 0.622
NCI-H460; first compound 0.5 µM
  relative viability: 0.578
NCI-H838; first compound 0.005 µM
  relative viability: 0.364
NCI-H838; first compound 0.01581 µM
  relative viability: 0.404
NCI-H838; first compound 0.05 µM
  relative viability: 0.357
NCI-H838; first compound 0.5 µM
  relative viability: 0.38
SK-LU-1; first compound 0.005 µM
  relative viability: 0.343
SK-LU-1; first compound 0.01581 µM
  relative viability: 0.314
SK-LU-1; first compound 0.05 µM
  relative viability: 0.383
SK-LU-1; first compound 0.1581 µM
  relative viability: 0.24
SK-LU-1; first compound 0.5 µM
  relative viability: 0.338
